Data on twelve compounds can be found in patent US11434249B1, “ASK1 inhibitor compounds and uses thereof” (Seal Rock Therapeutics, Inc., priority 2018, dated 2022).

The test deals with ASK1 (Homo sapiens (Human), UniProt Q99683). As to the kind of experiment: ASK1 Kinase Assay (Promega ASK1 Kinase Enzyme System, ADP-Glo luminescence). The test is classed as biochemical. The note with it: enzyme 50 nM, ATP 10 μM; for IC50: Myelin basic protein 1 μg/mL. As to the method:
The ASK1 enzymatic assay was run following Promega ASK1 Kinase Enzyme System (Cat #V3881). The kit provides the protocol, enzymes and all reagents necessary to run an assay.
The compounds, enzyme, substrate and ATP were diluted in provided assay buffer. The final concentration of the enzyme was 50 nM, substrate (Myelin basic protein) 1 μg/mL and ATP 10 μM. The compound and the enzyme were pre-incubated in a 384-well white solid bottom plate (Greiner, Cat #784075) for 10 minutes. After incubation, the substrate and ATP were added and incubated for an additional 60 minutes. After 60 minutes, ADP-Glo™ was added and the plate was incubated for another 40 minutes. After 40 minutes, Kinase Detection Reagent was added and the plate was incubated for 45 minutes. After 45 minutes, the plate was read on a Perkin Elmer EnVision using luminescence read (0.5 seconds/well).
In general terms: ADP-Glo first removes unused ATP, then detects ADP through luciferase.

ASK1, sequence (Q99683 whole entry): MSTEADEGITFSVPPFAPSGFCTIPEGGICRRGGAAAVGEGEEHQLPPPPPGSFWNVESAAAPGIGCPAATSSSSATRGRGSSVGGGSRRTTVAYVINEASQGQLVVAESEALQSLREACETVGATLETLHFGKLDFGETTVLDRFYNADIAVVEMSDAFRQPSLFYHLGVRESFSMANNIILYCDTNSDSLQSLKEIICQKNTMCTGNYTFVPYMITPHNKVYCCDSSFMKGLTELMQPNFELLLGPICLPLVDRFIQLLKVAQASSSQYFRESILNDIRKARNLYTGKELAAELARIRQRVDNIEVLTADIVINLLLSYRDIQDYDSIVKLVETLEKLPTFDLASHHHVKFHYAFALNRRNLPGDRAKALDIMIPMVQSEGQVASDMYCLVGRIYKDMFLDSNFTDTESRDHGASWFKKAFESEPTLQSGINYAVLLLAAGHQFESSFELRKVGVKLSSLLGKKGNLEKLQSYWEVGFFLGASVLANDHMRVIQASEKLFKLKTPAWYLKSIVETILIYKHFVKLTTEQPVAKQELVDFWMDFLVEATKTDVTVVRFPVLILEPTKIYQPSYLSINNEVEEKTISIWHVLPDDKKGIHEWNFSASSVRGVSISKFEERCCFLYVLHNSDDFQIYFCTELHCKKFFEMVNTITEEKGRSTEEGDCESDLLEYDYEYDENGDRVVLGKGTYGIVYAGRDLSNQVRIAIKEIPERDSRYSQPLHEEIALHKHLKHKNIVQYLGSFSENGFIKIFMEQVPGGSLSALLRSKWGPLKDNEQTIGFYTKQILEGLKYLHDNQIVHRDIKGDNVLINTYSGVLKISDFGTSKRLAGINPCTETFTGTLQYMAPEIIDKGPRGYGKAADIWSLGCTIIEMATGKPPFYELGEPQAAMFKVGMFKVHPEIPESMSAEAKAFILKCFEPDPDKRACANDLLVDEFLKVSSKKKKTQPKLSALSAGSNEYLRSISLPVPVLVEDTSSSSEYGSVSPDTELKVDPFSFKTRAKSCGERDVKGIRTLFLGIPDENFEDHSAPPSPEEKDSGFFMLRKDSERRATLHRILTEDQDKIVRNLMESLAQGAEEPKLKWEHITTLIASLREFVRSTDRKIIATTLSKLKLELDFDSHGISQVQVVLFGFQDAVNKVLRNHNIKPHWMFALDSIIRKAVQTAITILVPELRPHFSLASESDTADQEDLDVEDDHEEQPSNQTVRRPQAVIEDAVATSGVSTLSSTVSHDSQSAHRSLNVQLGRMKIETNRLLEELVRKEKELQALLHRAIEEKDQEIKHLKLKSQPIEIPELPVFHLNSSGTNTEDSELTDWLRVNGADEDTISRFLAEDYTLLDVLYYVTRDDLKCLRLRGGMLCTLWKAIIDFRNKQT

`O=C1c2sccc2CN1c1cccc(-c2nncn2C2CC2)n1` [Example 1, 5-(6-(4-Cyclopropyl-4H-1,2,4-triazol-3-yl)pyridin-2-yl)-4,5-dihydro-6H-thieno[2,3-c]pyrrol-6-one] yielded an IC50 of under 1000 nM. Still for that read-out and setting: in the case of `CC(=O)c1ccccc1-c1cc2c(s1)C(=O)N(c1cccc(-c3nncn3C3CC3)n1)C2` [Example 2, 2-(2-Acetylphenyl)-5-(6-(4-cyclopropyl-4H-1,2,4-triazol-3-yl)pyridin-2-yl)-4,5-dihydro-6H-thieno[2,3-c]pyrrol-6-one] it was under 1000 nM. Still for that read-out and setting: in the case of `O=C1c2sc(C3CCOCC3)cc2CN1c1cccc(-c2nncn2C2CC2)n1` [Example 4, 5-(6-(4-cyclopropyl-4H-1,2,4-triazol-3-yl)pyridin-2-yl)-2-(tetrahydro-2H-pyran-4-yl)-4,5-dihydro-6H-thieno[2,3-c]pyrrol-6-one] it was under 1000 nM; in that of `Cc1cc2c(s1)C(=O)N(c1cccc(-c3nncn3C3CC3)n1)C2` [Example 5, 5-(6-(4-cyclopropyl-4H-1,2,4-triazol-3-yl)pyridin-2-yl)-2-methyl-4,5-dihydro-6H-thieno[2,3-c]pyrrol-6-one], under 1000 nM. Still for that read-out and setting: in the case of `CCc1cc2c(s1)C(=O)N(c1cccc(-c3nncn3C3CC3)n1)C2` [Example 6, 5-(6-(4-cyclopropyl-4H-1,2,4-triazol-3-yl)pyridin-2-yl)-2-ethyl-4,5-dihydro-6H-thieno[2,3-c]pyrrol-6-one] it was under 1000 nM. The compound `O=C1c2scc(-c3ccccc3)c2CN1c1cccc(-c2nncn2C2CC2)n1` [Example 7, 5-(6-(4-cyclopropyl-4H-1,2,4-triazol-3-yl)pyridin-2-yl)-3-phenyl-4,5-dihydro-6H-thieno[2,3-c]pyrrol-6-one] gave an inhibition at 10 µM (at 10 μM compound) of 45%.

For `Cc1csc2c1CN(c1cccc(-c3nncn3C3CC3)n1)C2=O` [Example 9, 5-(6-(4-cyclopropyl-4H-1,2,4-triazol-3-yl)pyridin-2-yl)-3-methyl-4,5-dihydro-6H-thieno[2,3-c]pyrrol-6-one], the IC50 is under 1000 nM. On the same count and under the same terms, in the case of `O=C1c2scc(Br)c2CN1c1cccc(-c2nncn2C2CC2)n1` [Example 10, 3-bromo-5-(6-(4-cyclopropyl-4H-1,2,4-triazol-3-yl)pyridin-2-yl)-4,5-dihydro-6H-thieno[2,3-c]pyrrol-6-one] it was under 1000 nM.

`CC(C)CNc1csc2c1CN(c1cccc(-c3nncn3C3CC3)n1)C2=O` [Example 11, 5-(6-(4-cyclopropyl-4H-1,2,4-triazol-3-yl)pyridin-2-yl)-3-(isobutylamino)-4,5-dihydro-6H-thieno[2,3-c]pyrrol-6-one] showed a half-inhibitory concentration (IC50) of 1000 to 10000 nM. On the same count and under the same terms, the value for `O=C1c2sc3ccccc3c2CN1c1cccc(-c2nncn2C2CC2)n1` [Example 12, 2-(6-(4-cyclopropyl-4H-1,2,4-triazol-3-yl)pyridin-2-yl)-1,2-dihydro-3H-benzo[4,5]thieno[2,3-c]pyrrol-3-one] was under 1000 nM.

Compound `COc1cc2c(s1)C(=O)N(c1cccc(-c3nncn3C3CC3)n1)C2` [Example 13, 5-(6-(4-cyclopropyl-4H-1,2,4-triazol-3-yl)pyridin-2-yl)-2-methoxy-4,5-dihydro-6H-thieno[2,3-c]pyrrol-6-one] had an IC50 of under 1000 nM. Same read-out and setting: in the case of `CC(C)n1cnnc1-c1cccc(N2Cc3ccsc3C2=O)n1` [Example 14, 5-(6-(4-isopropyl-4H-1,2,4-triazol-3-yl)pyridin-2-yl)-4,5-dihydro-6H-thieno[2,3-c]pyrrol-6-one] it was under 1000 nM.

The term IC50 denotes the concentration that gives 50% inhibition. Read a high IC50 as a need for much substance. The term inhibition denotes the relative decrease from the control value, in per cent. Read a low inhibition as a response near the control.
